Experimental findings from patent US9834542B2, “LXR modulators” (BRISTOL-MYERS SQUIBB COMPANY, priority 2013, dated 2017) are described below.

Usually EC50 stands for the concentration that produces a half-maximal response. Higher therefore signals a less potent agent.

This test has as its target T1, LXRβ (Homo sapiens, UniProt P55055).
T1 construct: Co-transfection expression plasmids, comprising full-length LXRα (pCMX-h LXRα[…] or LXRβ (pCMX-hLXRβ)); expressed in transfected cells; host or cells: CV-1 African Green Monkey Kidney Cells
T1 sequence (P55055 1-460): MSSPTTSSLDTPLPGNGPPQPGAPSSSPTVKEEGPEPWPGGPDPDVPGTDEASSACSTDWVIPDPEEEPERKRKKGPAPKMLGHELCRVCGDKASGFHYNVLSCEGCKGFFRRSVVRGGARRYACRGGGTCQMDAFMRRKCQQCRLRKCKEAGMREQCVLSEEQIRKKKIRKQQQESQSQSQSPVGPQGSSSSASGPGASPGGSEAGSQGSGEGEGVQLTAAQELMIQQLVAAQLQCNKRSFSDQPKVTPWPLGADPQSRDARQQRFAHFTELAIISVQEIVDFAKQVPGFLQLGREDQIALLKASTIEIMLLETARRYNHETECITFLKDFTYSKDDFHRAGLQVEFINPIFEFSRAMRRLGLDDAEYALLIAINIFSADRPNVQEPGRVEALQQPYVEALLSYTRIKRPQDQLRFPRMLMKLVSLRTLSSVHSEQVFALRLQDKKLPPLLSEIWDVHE
T1 sequence (P19793 1-462 partner): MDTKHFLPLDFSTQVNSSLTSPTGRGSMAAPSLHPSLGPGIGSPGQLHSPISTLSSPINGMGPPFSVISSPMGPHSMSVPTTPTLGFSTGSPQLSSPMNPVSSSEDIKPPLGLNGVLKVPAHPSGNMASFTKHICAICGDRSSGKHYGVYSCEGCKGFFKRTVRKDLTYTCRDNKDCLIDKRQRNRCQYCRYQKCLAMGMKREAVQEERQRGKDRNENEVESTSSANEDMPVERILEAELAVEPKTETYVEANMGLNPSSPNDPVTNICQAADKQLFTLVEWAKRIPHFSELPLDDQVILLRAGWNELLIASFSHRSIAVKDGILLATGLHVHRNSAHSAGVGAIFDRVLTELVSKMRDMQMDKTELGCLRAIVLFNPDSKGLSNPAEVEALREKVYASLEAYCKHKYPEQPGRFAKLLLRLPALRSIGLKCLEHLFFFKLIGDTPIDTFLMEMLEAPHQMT
Briefly: Co-transfection assay (LXRE luciferase reporter), LXRβ. The note with it: for EC50: CV-1 cells transfected with pCMX-hLXRβ and LXREx1-Tk-Luciferase, 20 hours incubation; for Emax: LXRβ co-transfection, relative to high control 1-(2,4-difluorobenzyl)-2-oxo-6-(4-phenoxyphenyl)-4-(trifluoromethyl)-1,2-dihydropyridine-3-carbonitrile, read-out: % Efficacy. It counts as cell-based. Summed up:
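CV-1 cells transiently co-transfected with full-length human LXRβ expression plasmid, LXREx1-Tk-luciferase reporter and β-galactosidase control, then exposed to compound for 20 h at 37 °C. Luciferase luminescence read; EC50 from 11-point, ½-log dose–response fit, efficacy relative to high-control agonist maximum.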
On the technique in general: Reporter assays use an easily measured gene product as a stand-in for the process of interest.

For the molecule `Cc1nc(-c2cc(-c3cc(F)c(CO)c(S(C)(=O)=O)c3)ccc2-n2cc(C(F)(F)F)nc2C)c(-c2ccc(OC(F)F)c(OCC3CC3)c2)o1` [Example 383], it took 23 nM to reach a half-maximal effect (EC50) and the Emax was 67%.

For `Cc1nc(-c2ccc3c(c2)OC(F)(F)O3)c(-c2cc(-c3cc(Cl)c(CO)c(S(C)(=O)=O)c3)ccc2-n2cc(C(F)(F)F)nc2C)o1` [Example 623, (3-chloro-3′-(4-(2,2-difluorobenzo[d][1,3]dioxol-5-yl)-2-methyloxazol-5-yl)-4′-(2-methyl-4-(trifluoromethyl)-1H-imidazol-1-yl)-5-(methylsulfonyl)-[1,1′-biphenyl]-4-yl)methanol], the half-maximal effective concentration (EC50) amounted to 203 nM and the Emax was determined as 80%.

In the case of `Cc1nc(C(F)(F)F)cn1-c1ccc(-c2ccc(CO)c(S(C)(=O)=O)c2)cc1-c1nc(CCO)oc1-c1ccc(OC(F)(F)F)cc1` [Example 526], the EC50 amounted to 1770 nM and the Emax was determined as 74%.

On to `Cc1ccc(-c2cnnn2-c2cc(-c3cccc(S(C)(=O)=O)c3)ccc2-n2cc(C(F)F)nc2C)cc1` [Example 168, 1-{4-[4-(difluoromethyl)-2-methyl-1H-imidazol-1-yl]-3′-(methylsulfonyl)biphenyl-3-yl}-5-(4-methylphenyl)-1H-1,2,3-triazole], for which the midpoint of the response, the EC50, lay at 945 nM and the Emax is 81%.

Take `COCCc1nc(-c2cc(-c3cc(F)c(CO)c(S(C)(=O)=O)c3)ccc2-n2cc(C(F)(F)F)nc2C)c(-c2ccc(OC(F)(F)F)cc2)o1` [Example 527, (3-fluoro-3′-(2-(2-methoxyethyl)-5-(4-(trifluoromethoxy)phenyl)oxazol-4-yl)-4′-(2-methyl-4-(trifluoromethyl)-1H-imidazol-1-yl)-5-(meththsulfonyl)-[1,1′-biphenyl]-4-yl)methanol]: the EC50 is 107 nM and the Emax amounted to 54%.

Regarding `Cc1nc(C(F)(F)F)cn1-c1ccc(-c2cc(F)c(CO)c(S(C)(=O)=O)c2)cc1-n1nncc1C(C)(C)c1ccc(Cl)cc1` [Example 223, (3′-(5-(2-(4-chlorophenyl)propan-2-yl)-1H-1,2,3-triazol-1-yl)-3-fluoro-4′-(2-methyl-4-(trifluoromethyl)-1H-imidazol-1-yl)-5-(methylsulfonyl)-[1,1′-biphenyl]-4-yl)methanol], the midpoint of the response, the EC50, lay at 1770 nM and the Emax worked out at 63%.

With `Cc1nc(-c2cc(-c3ccc(C)c(S(C)(=O)=O)c3)ccc2-n2cc(C(F)(F)F)nc2C)c(-c2ccc(C(F)(F)F)nc2Cl)o1` [Example 476, 5-(2-chloro-6-(trifluoromethyl)pyridin-3-yl)-2-methyl-4-(4′-methyl-4-(2-methyl-4-(trifluoromethyl)-1H-imidazol-1-yl)-3′-(methylsulfonyl)biphenyl-3-yl)oxazole], the EC50 was 726 nM and the Emax worked out at 39%.

Turning to `CCOc1ncc(-c2oc(C)nc2-c2cc(-c3ccc(C)c(S(C)(=O)=O)c3)ccc2-n2cc(C(F)(F)F)nc2C)cc1F` [Example 473, 5-(6-ethoxy-5-fluoropyridn-3-yl)-2-methyl-4-(4′-methyl-4-(2-methyl-4-(trifluoromethyl)-1H-imidazol-1-yl)-3′-(methylsulfonyl)biphenyl-3-yl)oxazole], the EC50 was 280 nM and the Emax was determined as 50%.

`Cc1nc(Cl)cn1-c1ccc(-c2cc(F)c(CO)c(S(C)(=O)=O)c2)cc1-n1nncc1-c1ccc(OC(F)(F)F)cc1` [Example 147, [4′-(4-chloro-2-methyl-1H-imidazol-1-yl)-3-fluoro-5-(methylsulfonyl)-3′-(5-{4-[(trifluoromethyl)oxy]phenyl}-1H-1,2,3-triazol-1-yl)biphenyl-4-yl]methanol]: the EC50 is 413 nM and the Emax is 76%.

For the molecule `Cc1nc(C(F)(F)F)cn1-c1ccc(-c2cccc(S(C)(=O)=O)c2)cc1-n1nncc1C(C)(F)c1ccc(Cl)cc1` (centres unmarked) [Example 224, 5-(1-(4-chlorophenyl)-1-fluoroethyl)-1-(4-(2-methyl-4-(trifluoromethyl)-1H-imidazol-1-yl)-3′-(methylsulfonyl)-[1,1′-biphenyl]-3-yl)-1H-1,2,3-triazole], the response was half-maximal at 411 nM (EC50) and the Emax was 57%.

Turning to `Cc1nc(C(F)(F)F)cn1-c1ccc(-c2cccc(S(C)(=O)=O)c2)cc1-c1ncoc1-c1ccc(Cl)cc1` [Example 354, 5-(4-chlorophenyl)-4-{3′-(methylsulfonyl)-4-[2-methyl-4-(trifluoromethyl)-1H-imidazol-1-yl]biphenyl-3-yl}-1,3-oxazole], a half-maximal effect (EC50) was put at 425 nM and the Emax is 77%.

As to `Cc1nc(Cl)c(Cl)n1-c1ccc(-c2cccc(S(C)(=O)=O)c2)cc1-n1nncc1-c1ccc(OC(F)(F)F)cc1` [Example 151, 1-[4-(4,5-dichloro-2-methyl-1H-imidazol-1-yl)-3′-(methylsulfonyl)biphenyl-3-yl]-5-{4-[(trifluoromethyl)oxy]phenyl}-1H-1,2,3-triazole], the concentration giving a half-maximal response (EC50) was 214 nM and the Emax was determined as 148%.

As to `Cc1nc(C(F)(F)F)cn1-c1ccc(-c2ccc(CO)c(S(C)(=O)=O)c2)cc1-c1ocnc1Cc1ccc(Cl)cc1` [Example 635, (3′-(4-(4-chlorobenzyl)oxazol-5-yl)-4′-(2-methyl-4-(trifluoromethyl)-1H-imidazol-1-yl)-3-(methylsulfonyl)-[1,1′-biphenyl]-4-yl)methanol], the EC50 stood at 229 nM and the Emax was 58%.

With `Cc1nc(-c2cc(-c3cccc(S(C)(=O)=O)c3)ccc2-n2cc(C(F)(F)F)nc2C)c(-c2ccc(OC(F)F)c(OC(F)F)c2)o1` [Example 392, 5-(3,4-bis(difluoromethoxy)ohenyl)-2-methyl-4-(4-(2-methyl-4-(trifluoromethyl)-1H-imidazol-1-yl)-3′-(methylsulfonyl)biphenyl-3-yl)oxazole], the EC50 is 187 nM and the Emax was determined as 53%.

For `Cc1ccc(Cc2cnnn2-c2cc(-c3cccc(S(C)(=O)=O)c3)ccc2-n2cc(C(F)(F)F)nc2C)cc1` [Example 126, 5-[(4-methylphenyl)methyl]-1-{3′-(methylsulfonyl)-4-[2-methyl-4-(trifluoromethyl)-1H-imidazol-1-yl]biphenyl-3-yl}-1H-1,2,3-triazole], a half-maximal response (EC50) required 270 nM and the Emax turned out to be 93%.

For the molecule `Cc1nc(-c2cc(-c3cc(F)c(CO)c(S(C)(=O)=O)c3)ccc2-n2cc(C(F)(F)F)nc2C)c(-c2ccc(OC(F)F)cc2Cl)o1` [Example 397, (3′-(5-(2-chloro-4-(difluoromethoxy)phenyl)-2-methyloxazol-4-yl)-3-fluoro-4′-(2-methyl-4-(trifluoromethyl)-1H-imidazol-1-yl)-5-(methylsulfonyl)biphenyl-4-yl)methanol], the concentration for a half-maximal effect (EC50) worked out at 25 nM and the Emax was 63%.

In the case of `CCc1nc(-c2ccc(OC(F)(F)F)cc2)c(-c2cc(-c3cc(F)c(CO)c(S(C)(=O)=O)c3)ccc2-n2cc(C(F)(F)F)nc2C)o1` [Example 600, {3′-(2-ethyl-4-{4-[(trifluoromethyl)oxy]phenyl}-1,3-oxazol-5-yl)-3-fluoro-5-(methylsulfonyl)-4′-[2-methyl-4-(trifluoromethyl)-1H-imidazol-1-yl]biphenyl-4-yl}methanol], the EC50 was determined as 20 nM and the Emax was found to be 101%.

In the case of `Cc1nc(C(F)F)cn1-c1ccc(-c2cccc(S(C)(=O)=O)c2)cc1-n1nncc1-c1ccccc1` [Example 171, 1-{4-[4-(difluoromethyl)-2-methyl-1H-imidazol-1-yl]-3′-(methylsulfonyl)biphenyl-3-yl}-5-phenyl-1H-1,2,3-triazole], the midpoint of the response, the EC50, lay at 3090 nM and the Emax was found to be 60%.

`Cc1nc(-c2ccc(OC(F)(F)F)cc2)c(-c2cc(-c3cccc([S+](C)[O-])c3)ccc2-n2cc(C(F)(F)F)nc2C)o1` (centres unmarked) [Example 627, 2-methyl-5-(4-(2-methyl-4-(trifluoromethyl)-1H-imidazol-1-yl)-3′-(methylsulfinyl)-[1,1′-biphenyl]-3-yl)-4-(4-(trifluoromethoxy)phenyl)oxazole]: the EC50 was determined as 269 nM and the Emax stood at 93%.
